Test results reported in PMC8330742, “New benzothieno[2,3-c]pyridines as non-steroidal CYP17 inhibitors: design, synthesis, anticancer screening, apoptosis induction, and in silico ADME profile studies” (Journal of Enzyme Inhibition and Medicinal Chemistry, 2021).

Columns and labels:
OVCAR-8 = assay: NCI-60 SRB screen; format: cell-based, human; settings: OVCAR-8; five dose
CAKI-1 = assay: NCI-60 SRB screen; format: cell-based, human; settings: CAKI-1;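 for IC50: half-maximal inhibitory concentration read as cell viability unlike GI50 net growth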
ACHN = assay: NCI-60 SRB screen; format: cell-based;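 for IC50: half-maximal inhibitory concentration read as cell viability unlike GI50 net growth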
KM12 = assay: NCI-60 SRB screen; format: cell-based, human; settings: KM12;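 for IC50: half-maximal inhibitory concentration read as cell viability unlike GI50 net growth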
UACC-62 = assay: NCI-60 SRB screen; format: cell-based, human; settings: UACC-62;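 for IC50: half-maximal inhibitory concentration read as cell viability unlike GI50 net growth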
SK-MEL-28 = assay: NCI-60 SRB screen; format: cell-based; settings: SK-MEL-28
M14 = assay: NCI-60 SRB screen; format: cell-based, human; settings: M14
SR = assay: NCI-60 SRB screen; format: cell-based
NCI-H23 = assay: NCI-60 SRB screen; format: cell-based, human; settings: NCI-H23
SN12C = assay: NCI-60 SRB screen; format: cell-based, human; settings: SN12C
EKVX = assay: NCI-60 SRB screen; format: cell-based, human
MALME-3M = assay: NCI-60 SRB screen; format: cell-based, human
UO-31 = assay: NCI-60 SRB screen; format: cell-based, human; settings: UO-31
HCT-15 = assay: NCI-60 SRB screen; format: cell-based, human; settings: HCT-15
MOLT-4 = assay: NCI-60 SRB screen; format: cell-based; settings: MOLT-4
K-562 = assay: NCI-60 SRB screen; format: cell-based, human; settings: K-562
NCI/ADR-RES = assay: NCI-60 SRB screen; format: cell-based, human
RXF 393 = assay: NCI-60 SRB screen; format: cell-based, human; settings: RXF 393
[1] = system: panel of 60 cancer cell lines; assay: NCI-60 SRB screen, mean or range over the panel; format: cell-based, human; settings: Homo sapiens
HOP-62 = assay: NCI-60 SRB screen; format: cell-based, human; settings: HOP-62
SK-MEL-2 = assay: NCI-60 SRB screen; format: cell-based, human; settings: SK-MEL-2
IGROV1 = assay: NCI-60 SRB screen; format: cell-based, human; settings: IGROV1
TK-10 = assay: NCI-60 SRB screen; format: cell-based, human; settings: TK-10
[2] = Homo sapiens, single dose 10^−5 M, read-out: Growth inhibition (%)
[3] = Homo sapiens, IGROV-1, five dose

## N#CC1C(=O)NC(c2ccccc2[N+](=O)[O-])c2sc3c(F)cccc3c21 (stereo not shown) [Compound 5c, 4-Cyano-8-fluoro-1-(2-nitrophenyl)-1,2-dihydro[1]benzothieno[2,3-c] pyridin-3(4H)-one]
OVCAR-8
  TGI: 100 µM
CAKI-1; five dose
  TGI: 100 µM
CAKI-1; Homo sapiens, five dose
  GI50: 0.17 µM
  IC50: 0.562 µM
CAKI-1; [2]
  inhibition at 10 µM: 94.7%
ACHN; Homo sapiens, five dose
  GI50: 15.7 µM
  IC50: 29.5 µM
  LC50 (NCI-60 lethal concentration, 50% net cell kill): > 100 µM
ACHN; [2]
  inhibition at 10 µM: 34.3%
ACHN; five dose
  TGI: 100 µM
KM12; Homo sapiens, five dose
  GI50: 19.9 µM
  IC50: 32.4 µM
KM12; [2]
  inhibition at 10 µM: 8.58%
KM12; five dose
  TGI: 100 µM
UACC-62; Homo sapiens, five dose
  GI50: 0.36 µM
  IC50: 1.78 µM
UACC-62; [2]
  inhibition at 10 µM: 90.6%
UACC-62; five dose
  TGI: 47.20 µM
SK-MEL-28; Homo sapiens, five dose
  GI50: 31.2 µM
  IC50: 66.1 µM
  LC50 (50% lethal concentration): > 100 µM
SK-MEL-28; [2]
  inhibition at 10 µM: -10.6%
SK-MEL-28; five dose
  TGI: 100 µM
M14; Homo sapiens, five dose
  GI50: 16.3 µM
  IC50: 28.2 µM
M14; [2]
  inhibition at 10 µM: 7.3%
M14; five dose
  TGI: 100 µM
SR; Homo sapiens, five dose
  GI50: 14.1 µM
  IC50: 25.1 µM
  LC50: > 100 µM
SR; [2]
  inhibition at 10 µM: 33.2%
SR; five dose
  TGI: 100 µM
NCI-H23; Homo sapiens, five dose
  GI50: 7.33 µM
  IC50: 19.5 µM
NCI-H23; [2]
  inhibition at 10 µM: 32.9%
NCI-H23; five dose
  TGI: 100 µM
SN12C; Homo sapiens, SN 12 C, single dose 10^−5 M, read-out: Growth inhibition (%)
  inhibition at 10 µM: 20.9%
SN12C; Homo sapiens, five dose
  GI50: 18.6 µM
  IC50: 34.7 µM
SN12C; five dose
  TGI: 100 µM
EKVX; Homo sapiens, five dose
  GI50: 2.69 µM
  IC50: 13.8 µM
EKVX; [2]
  inhibition at 10 µM: 35.3%
EKVX; five dose
  TGI: 100 µM
MALME-3M; Homo sapiens, five dose
  GI50: 22.6 µM
  IC50: 83.2 µM
MALME-3M; [2]
  inhibition at 10 µM: 25.3%
MALME-3M; five dose
  TGI: 100 µM
UO-31; Homo sapiens, five dose
  GI50: 10.7 µM
  IC50: 19.5 µM
UO-31; [2]
  inhibition at 10 µM: 46.2%
UO-31; five dose
  TGI: 55.20 µM
HCT-15; five dose
  TGI: 100 µM
HCT-15; Homo sapiens, five dose
  GI50: 11.4 µM
  IC50: 16.6 µM
HCT-15; [2]
  inhibition at 10 µM: 12.3%
MOLT-4; Homo sapiens, five dose
  GI50: 19.1 µM
  IC50: 30.9 µM
  LC50 (50% lethal concentration): > 100 µM
MOLT-4; [2]
  inhibition at 10 µM: 13.5%
MOLT-4; five dose
  TGI: 100 µM
K-562; Homo sapiens, K562, five dose
  GI50: 1.98 µM
  IC50: 3.16 µM
K-562; Homo sapiens, K562, single dose 10^−5 M, read-out: Growth inhibition (%)
  inhibition at 10 µM: 64.1%
K-562; five dose
  TGI: 100 µM
NCI/ADR-RES; Homo sapiens, five dose
  GI50: 8.21 µM
  IC50: 16.6 µM
NCI/ADR-RES; [2]
  inhibition at 10 µM: 31.5%
NCI/ADR-RES; five dose
  TGI: 100 µM
RXF 393; Homo sapiens, five dose
  GI50: 11.3 µM
  IC50: 37.2 µM
RXF 393; [2]
  inhibition at 10 µM: 30.1%
RXF 393; five dose
  TGI: 100 µM
[1]; mean graph midpoint over all tested cell lines, five dose, read-out: MG-MID GI50
  GI50: 0.21 µM
[1]; mean over the cell lines, single dose 10^−5 M, read-out: Mean growth inhibition (%)
  inhibition at 10 µM: 46.9%
HOP-62; five dose
  TGI: 100 µM
HOP-62; Homo sapiens, five dose
  GI50: 10 µM
  IC50: 22.9 µM
HOP-62; [2]
  inhibition at 10 µM: 66.3%
SK-MEL-2; Homo sapiens, five dose
  GI50: 12.7 µM
  IC50: 33.9 µM
SK-MEL-2; [2]
  inhibition at 10 µM: 7.4%
SK-MEL-2; five dose
  TGI: 100 µM
IGROV1; [3]
  GI50: 0.004 µM
  IC50: 0.178 µM
IGROV1; Homo sapiens, IGROV-1, single dose 10^−5 M, read-out: Growth inhibition (%)
  inhibition at 10 µM: 99.7%
IGROV1; five dose
  TGI: 100 µM
TK-10; Homo sapiens, five dose
  GI50: 17.7 µM
  IC50: 72.4 µM
TK-10; [2]
  inhibition at 10 µM: 58.9%
TK-10; five dose
  TGI: 100 µM
